Assay results from patent US4873342A, “Dipeptide derivative and synthesis and use thereof” (Suntory Limited, priority 1985, dated 1989).
Values belong to the molecule of their own block, whether it stands above or below them. Peptide text beside a SMILES is read from it. * marks the point of attachment. Hydrocinnamoyl = O=C(CCc1ccccc1)*; PhAc = O=C(Cc1ccccc1)*

What was measured:
[1] = system: Experimental Amnesia caused in Rats by Scopolamine; test: Preventive effect against experimental amnesia caused in rats by scopolamine (passive avoidance, intraperitoneal administration); assay type: in vivo, Wister male rats; settings: for No. of amnesic rats/No. of rats tested / Percentage amnesia / Avoidance time After 24 hrs. / Avoidance time After 48 hrs.: i.p., scopolamine 3 mg/kg i.p.
Description: Several of the anti-prolyl endopeptidase compounds according to the present invention were checked for their ability to prevent the inhibition of long-term memory fixation by scopolamine. […] One hour after the administration, electric shocks were applied to the rats so that they would acquire passive avoidance learning. Immediately thereafter, scopolamine was administered intraperitoneally to each rat in an amount of 3 mg per kg of body weight.
The results of the test were assessed both 24 hours and 48 hours after the administration of scopolamine. The number of amnesic rats and of sound rats was counted for each of the control group (rats to which the test compounds were not administered but to which only scopolamine and physiological saline were administered intraperitoneally) and the treated group (rats to which both the test compound and scopolamine were administered).

prolyl endopeptidase = prolyl endopeptidase (Elizabethkingia meningoseptica, UniProt P27028); test: Measurement of anti-prolyl endopeptidase activity (decomposition of Z-glycyl-prolyl-β-naphthylamide); assay type: biochemical; settings: substrate Z-glycyl-proline-β-naphthylamide, phosphate buffer pH 7.0
Description: The method of Yoshimoto and Tsuru (T. Yoshimoto and D. Tsuru, Agr. Biol. Chem. 42, 2417, 1978) was used to measure the anti-prolyl endopeptidase activities of several compounds according to the present invention. A mixture of 0.0025M Z--glycyl--proline--β--naphthylamide (0.25 ml), 0.1M phosphate buffer (pH 7.0; 0.99 ml) and a solution of a particular anti-prolyl endopeptidase compound (0.01 ml) was incubated in a test tube at 37° C. for 3 minutes. Thereafter […] of a solution of prolyl endopeptidase (0.2 U/ml) was added and the mixture was heated at 35° C. for 10 minutes. After the reaction, 2.0 ml of Triton x-100 in 1M acetate buffer (pH 4.0) was added to the reaction mixture until the final concentration of the surfactant was 10%. The mixture was left at a room temperature for 15 minutes and the absorbance (a) at 410 nm was measured.
A sample for a blind test was prepared by using the buffer solely in place of the anti-prolyl endopeptidase compound and its absorbance (b) was also measured. The percent inhibition of prolyl endopeptidase was calculated by the formula: [(b-a)/b]×100, and the amount of a specific compound needed to achieve 50% inhibition (IC50) was determined.

CDF-1 strain male mice = test: Acute toxicity test in mice; assay type: in vivo; settings: i.p. in DMSO, five mice per group, observed 24 and 48 hours after administration
Description: The compounds of the present invention were checked for their acute toxicity in CDF-1 strain male mice (body weight: 27.2 to 30.1 g) purchased from Awazu Laboratory Animals Co., Ltd.
Test samples were prepared by dissolving the respective compounds in DMSO, and a portion (0.1 ml) of the so conditioned test sample was administered intraperitoneally to each of the mice used. Each of the treated groups consisted of five mice. After 24 hours and 48 hours had passed from the time of administration, respectively, the mice were observed.

Male mice of ddY-strain = test: Anti-hypoxia effect (survival time at 180 mmHg); assay type: in vivo; settings: for No. of survival/used, Drug / Survival time, Drug (Mean ± S.E.): mice, 180 mmHg
Description: Male mice of ddY-strain weighing 25 to 34 g were allotted to groups consisting of 7 to 10 animals each. Each compound to be tested was suspended in physiological saline with 2 to 3 drops of Tween 80® added thereto, and administered intraperitoneally at the rate of 0.1 ml per 10 g of body weight.
Each mouse was put into a 1 l desiccator 30 minutes after the administration, and the pressure in the desiccator was reduced to 180 mmHg by means of a vacuum pump. The period from the start of pressure reduction to the respiratory arrest of the mouse was assumed to be the survival time (minute) of the mouse.
If the mouse survived more than 15 minutes, its survival time was recorded as being 15 minutes. A student's t-test was adopted for the significance analysis.

prolyl endopeptidase, sequence (P27028 21-705): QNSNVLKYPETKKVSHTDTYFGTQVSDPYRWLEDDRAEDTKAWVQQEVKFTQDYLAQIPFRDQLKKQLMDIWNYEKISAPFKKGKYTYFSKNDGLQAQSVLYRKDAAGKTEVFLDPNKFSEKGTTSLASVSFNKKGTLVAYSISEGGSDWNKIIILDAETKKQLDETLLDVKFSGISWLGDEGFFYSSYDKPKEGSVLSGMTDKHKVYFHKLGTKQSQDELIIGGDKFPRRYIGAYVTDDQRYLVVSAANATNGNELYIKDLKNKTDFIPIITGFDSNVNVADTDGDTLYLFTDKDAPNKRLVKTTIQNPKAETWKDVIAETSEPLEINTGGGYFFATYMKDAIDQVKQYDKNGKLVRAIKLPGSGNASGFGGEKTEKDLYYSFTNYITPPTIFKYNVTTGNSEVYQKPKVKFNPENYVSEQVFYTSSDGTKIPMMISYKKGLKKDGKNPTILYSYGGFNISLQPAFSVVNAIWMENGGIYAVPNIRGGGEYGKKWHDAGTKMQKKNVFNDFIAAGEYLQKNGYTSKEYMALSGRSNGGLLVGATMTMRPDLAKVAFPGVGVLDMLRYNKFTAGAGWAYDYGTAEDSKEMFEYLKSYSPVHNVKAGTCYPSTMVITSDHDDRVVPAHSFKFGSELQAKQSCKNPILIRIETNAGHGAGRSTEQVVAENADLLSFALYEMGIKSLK

SMILES: C[C@H](NC(=O)CCCc1ccccc1)C(=O)N1CCC[C@H]1C=O [SUAM 1110, N--(4-phenyl)butanoyl--Ala--Pro--CHO]
anti-amnesic effect (in words) ([1]; 0.025 mg/kg administered): very strong effects
anti-amnesic effect (in words) ([1]; 0.1 mg/kg administered): very strong effects
No. of amnesic rats/No. of rats tested ([1]; 250 μg/kg): 0/10
Percentage amnesia ([1]; 250 μg/kg): 0
Avoidance time After 24 hrs. ([1]; 250 μg/kg): 300.0 s
Avoidance time After 48 hrs. ([1]; 250 μg/kg): 300.0 s
No. of amnesic rats/No. of rats tested ([1]; 1 mg/kg): 1/10
Percentage amnesia ([1]; 1 mg/kg): 10
Avoidance time After 24 hrs. ([1]; 1 mg/kg): 272.8 s
Avoidance time After 48 hrs. ([1]; 1 mg/kg): 271.2 s
anti-amnesic effect (in words) ([1]; administration of 1 mg/kg): did not manifest the desired effect

IC50 (amount needed to achieve 50% inhibition of prolyl endopeptidase) (prolyl endopeptidase): 0.3 ng/test tube
SMILES: CC(C)CC(NC(=O)CCCc1ccccc1)C(=O)N1CCCC1C=O (stereo not shown) [SUAM 1115, N--(4-phenyl)butanoyl--Leu--Pro--CHO]
No. of amnesic rats/No. of rats tested ([1]; 25 μg/kg): 0/10
Percentage amnesia ([1]; 25 μg/kg): 0
Avoidance time After 24 hrs. ([1]; 25 μg/kg): 300.0 s
Avoidance time After 48 hrs. ([1]; 25 μg/kg): 300.0 s
anti-amnesic effect (in words) ([1]; 0.025 mg/kg administered): very strong effects
No. of amnesic rats/No. of rats tested ([1]; 100 μg/kg): 0/10
Percentage amnesia ([1]; 100 μg/kg): 0
Avoidance time After 24 hrs. ([1]; 100 μg/kg): 300.0 s
Avoidance time After 48 hrs. ([1]; 100 μg/kg): 300.0 s
anti-amnesic effect (in words) ([1]; 0.1 mg/kg administered): very strong effects
No. of amnesic rats/No. of rats tested ([1]; 250 μg/kg): 3/10
Percentage amnesia ([1]; 250 μg/kg): 30
Avoidance time After 24 hrs. ([1]; 250 μg/kg): 193.2 s
Avoidance time After 48 hrs. ([1]; 250 μg/kg): 217.1 s
anti-amnesic effect (in words) ([1]; administration of 1 mg/kg): did not manifest the desired effect

IC50 (amount needed to achieve 50% inhibition of prolyl endopeptidase) (prolyl endopeptidase): 0.2 ng/test tube
SMILES: CC(C)[C@H](NC(=O)CCCc1ccccc1)C(=O)N1CCC[C@H]1C=O [SUAM 1117, N--(4-phenyl)butanoyl--Val--Pro--CHO]
No. of amnesic rats/No. of rats tested ([1]; 25 μg/kg): 1/10
Percentage amnesia ([1]; 25 μg/kg): 10
Avoidance time After 24 hrs. ([1]; 25 μg/kg): 300.0 s
Avoidance time After 48 hrs. ([1]; 25 μg/kg): 289.5 s
anti-amnesic effect (in words) ([1]; 0.025 mg/kg administered): very strong effects
No. of amnesic rats/No. of rats tested ([1]; 100 μg/kg): 0/10
Percentage amnesia ([1]; 100 μg/kg): 0
Avoidance time After 24 hrs. ([1]; 100 μg/kg): 300.0 s
Avoidance time After 48 hrs. ([1]; 100 μg/kg): 300.0 s
anti-amnesic effect (in words) ([1]; 0.1 mg/kg administered): very strong effects
No. of amnesic rats/No. of rats tested ([1]; 250 μg/kg): 4/10
Percentage amnesia ([1]; 250 μg/kg): 40
Avoidance time After 24 hrs. ([1]; 250 μg/kg): 232.0 s
Avoidance time After 48 hrs. ([1]; 250 μg/kg): 194.4 s
No. of amnesic rats/No. of rats tested ([1]; 1 mg/kg): 6/10
Percentage amnesia ([1]; 1 mg/kg): 60
Avoidance time After 24 hrs. ([1]; 1 mg/kg): 161.6 s
Avoidance time After 48 hrs. ([1]; 1 mg/kg): 125.0 s
anti-amnesic effect (in words) ([1]; administration of 1 mg/kg): did not manifest the desired effect

SMILES: O=C[C@@H]1CCCN1C(=O)[C@@H]1CCCN1C(=O)CCCc1ccccc1 [SUAM 1231, N--(4-phenyl)butanoyl--Pro--Pro--CHO]
Average-Dose at which the mice remained sound and showed no sign of intoxication (CDF-1 strain male mice): 634.6 mg/kg
IC50 (amount needed to achieve 50% inhibition of prolyl endopeptidase) (prolyl endopeptidase): 0.2 ng/test tube
No. of amnesic rats/No. of rats tested ([1]; 20 μg/kg): 0/10
Percentage amnesia ([1]; 20 μg/kg): 0
Avoidance time After 24 hrs. ([1]; 20 μg/kg): 300.0 s
anti-amnesic effect (in words) ([1]; at 0.020 mg/kg): strong effect

SMILES: O=C[C@@H]1CCCN1C(=O)[C@H](Cc1ccccc1)NC(=O)CCCc1ccccc1 [SUAM 1234, N--(4-phenyl)butanoyl--Phe--Pro--CHO]
Survival time Ratio (Drug/Control) (Male mice of ddY-strain; 1 mg/kg i.p.): 1.24
No. of survival/used, Drug (Male mice of ddY-strain; 1 mg/kg i.p.): 0/7
Survival time, Drug (Mean ± S.E.) (Male mice of ddY-strain; 1 mg/kg i.p., control 2.32 ± 0.11, *P < 0.05): 2.88 ± 0.17 min
Survival time Ratio (Drug/Control) (Male mice of ddY-strain; 10 mg/kg i.p.): 1.09
No. of survival/used, Drug (Male mice of ddY-strain; 10 mg/kg i.p.): 0/7
Survival time, Drug (Mean ± S.E.) (Male mice of ddY-strain; 10 mg/kg i.p., control 2.25 ± 0.15): 2.45 min
IC50 (amount needed to achieve 50% inhibition of prolyl endopeptidase) (prolyl endopeptidase): 0.3 ng/test tube

SMILES: CCCCC(NC(=O)CCCc1ccccc1)C(=O)N1CCCC1C=O (stereo not shown) [SUAM 1333, N--(4-phenyl)butanoyl--norLeu--Pro--CHO]
Average-Dose at which the mice remained sound and showed no sign of intoxication (CDF-1 strain male mice): 707.7 mg/kg
IC50 (amount needed to achieve 50% inhibition of prolyl endopeptidase) (prolyl endopeptidase): 0.4 ng/test tube
No. of amnesic rats/No. of rats tested ([1]; 20 μg/kg): 0/10
Percentage amnesia ([1]; 20 μg/kg): 0
Avoidance time After 24 hrs. ([1]; 20 μg/kg): 300.0 s
anti-amnesic effect (in words) ([1]; at 0.020 mg/kg): strong effect

IC50 (amount needed to achieve 50% inhibition of prolyl endopeptidase) (prolyl endopeptidase): 1.0 ng/test tube
SMILES: O=C[C@@H]1CCCN1C(=O)[C@@H]1CCCN1C(=O)Cc1ccccc1 [SUAM 1336, N--(2-phenyl)acetyl--Pro--Pro--CHO] (PhAc-Pro-Pro-aldehyde)

IC50 (amount needed to achieve 50% inhibition of prolyl endopeptidase) (prolyl endopeptidase): 0.4 ng/test tube
SMILES: O=C[C@@H]1CCCN1C(=O)[C@@H]1CCCN1C(=O)CCc1ccccc1 [SUAM 1339, N--(3-phenyl)propionyl--Pro--Pro--CHO] (Hydrocinnamoyl-Pro-Pro-aldehyde)

IC50 (amount needed to achieve 50% inhibition of prolyl endopeptidase) (prolyl endopeptidase): 0.2 ng/test tube
SMILES: O=C[C@@H]1CCCN1C(=O)[C@@H]1CCCN1C(=O)CCCCc1ccccc1 [SUAM 1342, N--(5-phenyl)pentanoyl--Pro--Pro--CHO]

IC50 (amount needed to achieve 50% inhibition of prolyl endopeptidase) (prolyl endopeptidase): 0.7 ng/test tube
SMILES: CSCC[C@H](NC(=O)CCCc1ccccc1)C(=O)N1CCC[C@H]1C=O [SUAM 1345, N--(4-phenyl)butanoyl--Met--Pro--CHO]
